ChEMBL document CHEMBL2074169, “Contribution of organic anion transporting polypeptide to uptake of its possible substrates into rat hepatocytes” (J Pharmacol Exp Ther, 1999)
Where a name gives a salt, the structure may show the parent alone.

What was measured:
[1] = target: T1, Solute carrier organic anion transporter family member 1A1 (Rattus norvegicus, UniProt P46720); test: (§1) TP_TRANSPORTER: uptake in Oatp1-expressing COS-7 cells; format: functional, cell-based; conditions: monkey
T1 sequence (P46720 whole entry): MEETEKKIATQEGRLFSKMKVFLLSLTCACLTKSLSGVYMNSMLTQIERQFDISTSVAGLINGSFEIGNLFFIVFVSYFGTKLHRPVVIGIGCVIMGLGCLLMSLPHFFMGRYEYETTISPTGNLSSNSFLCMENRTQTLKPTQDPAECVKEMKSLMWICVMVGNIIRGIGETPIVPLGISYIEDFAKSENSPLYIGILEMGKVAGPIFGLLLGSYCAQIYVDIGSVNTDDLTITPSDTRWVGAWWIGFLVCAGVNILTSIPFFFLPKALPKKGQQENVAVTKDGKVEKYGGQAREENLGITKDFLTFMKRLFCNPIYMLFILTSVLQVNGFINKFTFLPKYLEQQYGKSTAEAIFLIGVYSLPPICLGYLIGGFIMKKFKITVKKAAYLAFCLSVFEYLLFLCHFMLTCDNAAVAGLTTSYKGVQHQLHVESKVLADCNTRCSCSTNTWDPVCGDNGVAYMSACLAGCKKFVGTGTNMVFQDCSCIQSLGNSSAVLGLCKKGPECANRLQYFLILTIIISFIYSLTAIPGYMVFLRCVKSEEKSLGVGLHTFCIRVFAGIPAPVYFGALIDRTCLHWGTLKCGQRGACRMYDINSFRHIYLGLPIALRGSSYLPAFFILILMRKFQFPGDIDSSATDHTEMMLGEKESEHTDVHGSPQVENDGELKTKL

[2] = substrate: C[C@]12CC[C@@H]3c4ccc(O)cc4CC[C@H]3[C@@H]1CC[C@@H]2O[C@@H]1O[C@H](C(=O)O)[C@@H](O)[C@H](O)[C@H]1O; test: as §1; format: functional, cell-based

With `CNc1nc2c(Cc3cccnc3)c(C)c(OS(=O)(=O)O)c(C)c2s1` [E3040 SULFATE] the Activity [1] was “substrate [+]”.

With `C[C@]12CC[C@@H]3c4ccc(OS(=O)(=O)O)cc4CC[C@H]3[C@@H]1CCC2=O` [ESTRONE SULFURIC ACID] the Activity [1] was “substrate [+]”.

B1: Solute carrier organic anion transporter family member 1A1 (Rattus norvegicus) (protein)
chain: MEETEKKIATQEGRLFSKMKVFLLSLTCACLTKSLSGVYMNSMLTQIERQFDISTSVAGLINGSFEIGNLFFIVFVSYFGTKLHRPVVIGIGCVIMGLGCLLMSLPHFFMGRYEYETTISPTGNLSSNSFLCMENRTQTLKPTQDPAECVKEMKSLMWICVMVGNIIRGIGETPIVPLGISYIEDFAKSENSPLYIGILEMGKVAGPIFGLLLGSYCAQIYVDIGSVNTDDLTITPSDTRWVGAWWIGFLVCAGVNILTSIPFFFLPKALPKKGQQENVAVTKDGKVEKYGGQAREENLGITKDFLTFMKRLFCNPIYMLFILTSVLQVNGFINKFTFLPKYLEQQYGKSTAEAIFLIGVYSLPPICLGYLIGGFIMKKFKITVKKAAYLAFCLSVFEYLLFLCHFMLTCDNAAVAGLTTSYKGVQHQLHVESKVLADCNTRCSCSTNTWDPVCGDNGVAYMSACLAGCKKFVGTGTNMVFQDCSCIQSLGNSSAVLGLCKKGPECANRLQYFLILTIIISFIYSLTAIPGYMVFLRCVKSEEKSLGVGLHTFCIRVFAGIPAPVYFGALIDRTCLHWGTLKCGQRGACRMYDINSFRHIYLGLPIALRGSSYLPAFFILILMRKFQFPGDIDSSATDHTEMMLGEKESEHTDVHGSPQVENDGELKTKL
With B1 the Km [2] was 20.4 µM.
